Laboratory results from BindingDB's records for doi:10.1021/cb500360c (AstraZeneca, 2014).

What was measured:
[1] = molecular target: UDP-N-acetylmuramate--L-alanine ligase (Escherichia coli (strain K12), UniProt P17952); test: E.coli MurC assay; settings: 25 °C
Procedure: The reactions (25 μL) were carried out in 25 mM Tris-HCl pH 8.0, 10 mM ammonium sulfate, 1.25 mM DTT, 0.002% Brij-35, 10 mM MgCl2, 40 μM UNAM, 100 μM ATP, 40 μM L-alanine and 15 nM enzyme in 384-well plate at 25 C for 50 minutes.

[2] = molecular target: UDP-N-acetylmuramate--L-alanine ligase (Pseudomonas aeruginosa (strain ATCC 15692 / DSM 22644 / CIP 104116 / JCM 14847 / LMG 12228 / 1C / PRS 101 / PAO1), UniProt Q9HW02); test: P. aeruginosa MurC assay; settings: 25 °C
Procedure: The reactions (50 μL) were carried out in 50 mM Tris-HCl pH 8.0, 20 mM ammonium sulfate, 2.5 mM DTT, 0.002% Brij-35, 1 mM MgCl2, 18 μM UNAM, 38 μM ATP, 28 μM L-alanine, 2 μg/mL Poly uridine nucleic acid, 0.1 μM Polynucleotide Phosphorylase, 0.25X ribogreen and 3 nM enzyme in 384-well plate at 25 C for 60 minutes.

UDP-N-acetylmuramate--L-alanine ligase (Escherichia coli (strain K12), UniProt P17952), sequence (P17952 whole entry): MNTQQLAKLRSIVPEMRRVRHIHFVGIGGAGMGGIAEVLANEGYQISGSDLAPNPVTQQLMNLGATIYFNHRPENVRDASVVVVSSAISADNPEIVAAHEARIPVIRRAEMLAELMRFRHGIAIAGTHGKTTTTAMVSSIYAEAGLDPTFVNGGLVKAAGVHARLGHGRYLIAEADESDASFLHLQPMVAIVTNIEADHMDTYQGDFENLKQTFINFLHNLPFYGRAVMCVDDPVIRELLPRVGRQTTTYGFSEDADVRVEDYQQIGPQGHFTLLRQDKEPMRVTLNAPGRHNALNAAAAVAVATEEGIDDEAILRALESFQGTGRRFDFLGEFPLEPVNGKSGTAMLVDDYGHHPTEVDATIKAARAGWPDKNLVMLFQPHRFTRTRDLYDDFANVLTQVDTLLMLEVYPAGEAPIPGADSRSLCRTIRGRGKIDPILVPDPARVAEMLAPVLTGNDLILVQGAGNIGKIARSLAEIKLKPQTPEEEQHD

IC50 [1] [nM]	IC50 [2] [nM]	SMILES
< 1	1.3	Cn1nc(Nc2nc(N[C@@H](COC(=O)NCc3cc(=O)c(O)cn3O)c3ccccc3)nc3[nH]ncc23)cc1C(C)(C)C [(R)-2-(4-(5-tert-butyl-1-methyl-1H-pyrazol-3-ylamino)-1H-pyrazolo[3,4-d]pyrimidin-6-ylamino)-2-phenylethyl(1,5-dihydroxy-4-oxo-1,4-dihydropyridin-2-yl)methylcarbamate (23)]
60	7	Cn1nc(Nc2nc(N[C@@H](COC(=O)NCCN3CCC(=O)N3)c3ccccc3)nc3n[nH]cc23)cc1C(C)(C)C [(R)-2-(4-(5-tert-butyl-1-methyl-1H-pyrazol-3-ylamino)-1H-pyrazolo[3,4-d]pyrimidin-6-ylamino)-2-phenylethyl 2-(3-oxopyrazolidin-1-yl)ethylcarbamate (25)]
21	4	COc1ccc([C@H](CO)Nc2nc(Nc3cc(C(C)(C)C)n(C)n3)c3c[nH]nc3n2)cc1 [(R)-2-((4-((5-(tert-butyl)-1-methyl-1H-pyrazol-3-yl)amino)-1H-pyrazolo[3,4-d]pyrimidin-6-yl)amino)-2-(4-methoxyphenyl)ethanol (16)]
11	8	Cn1nc(Nc2nc(N[C@H](CO)c3ccccc3)nc3[nH]ncc23)cc1C(C)(C)C [(S)-2-(4-(5-tert-butyl-1-methyl-1H-pyrazol-3-ylamino)-1H-pyrazolo[3,4-d]pyrimidin-6-ylamino)-2-phenylethanol (11)]
–	0.6	Cn1nc(Nc2nc(N[C@@H](CO)C3CCCCC3)nc3n[nH]cc23)cc1C(C)(C)C [(R)-2-(4-(5-tert-butyl-1-methyl-1H-pyrazol-3-ylamino)-1H-pyrazolo[3,4-d]pyrimidin-6-ylamino)-2-cyclohexylethanol (6)]
4	< 0.5	Cn1nc(Nc2nc(N[C@H](CO)c3cccc(F)c3)nc3n[nH]cc23)cc1C(C)(C)C [(S)-2-((4-((5-(tert-butyl)-1-methyl-1H-pyrazol-3-yl)amino)-1H-pyrazolo[3,4-d]pyrimidin-6-yl)amino)-2-(3-fluorophenyl)ethanol (17)]
52	6	Cn1nc(Nc2nc(N[C@@H](COC(=O)NO)c3ccccc3)nc3n[nH]cc23)cc1C(C)(C)C [(R)-2-(4-(5-tert-butyl-1-methyl-1H-pyrazol-3-ylamino)-1H-pyrazolo[3,4-d]pyrimidin-6-ylamino)-2-phenylethyl hydroxycarbamate (20)]
60	7	Cc1cc([C@H](CO)Nc2nc(Nc3cc(C(C)(C)C)n(C)n3)c3c[nH]nc3n2)on1 [(S)-2-(4-(5-tert-butyl-1-methyl-1H-pyrazol-3-ylamino)-1H-pyrazolo[3,4-d]pyrimidin-6-ylamino)-2-(3-methylisoxazol-5-yl)ethanol (12)]
4	0.7	Cn1nc(Nc2nc(N[C@@H](COC(=O)NCCN)c3ccccc3)nc3n[nH]cc23)cc1C(C)(C)C [(R)-2-(4-(5-tert-butyl-1-methyl-1H-pyrazol-3-ylamino)-1H-pyrazolo[3,4-d]pyrimidin-6-ylamino)-2-phenylethyl 2-aminoethylcarbamate (22)]
–	9	Cn1nc(Nc2nc(N[C@@H](CO)c3cccnc3)nc3n[nH]cc23)cc1C(C)(C)C [(R)-2-((4-((5-(tert-butyl)-1-methyl-1H-pyrazol-3-yl)amino)-1H-pyrazolo[3,4-d]pyrimidin-6-yl)amino)-2-(pyridin-3-yl)ethanol (15)]
–	5	Cn1nc(Nc2nc(N[C@H](CO)C3CCCCC3)nc3n[nH]cc23)cc1C(C)(C)C [((S)-2-(4-(5-tert-butyl-1-methyl-1H-pyrazol-3-ylamino)-1H-pyrazolo[3,4-d]pyrimidin-6-ylamino)-2-cyclohexylethanol (7)]
2	–	Cn1nc(Nc2nc(N[C@@H]3c4ccccc4C[C@@H]3O)nc3n[nH]cc23)cc1C(C)(C)C [(1R,2S)-1-(4-(5-tert-butyl-1-methyl-1H-pyrazol-3-ylamino)-1H-pyrazolo[3,4-d]pyrimidin-6-ylamino)-2,3-dihydro-1H-inden-2-ol (13)]
3	< 0.5	CN1C(=O)NC[C@H]1CNC(=O)OC[C@H](Nc1nc(Nc2cc(C(C)(C)C)n(C)n2)c2c[nH]nc2n1)c1ccccc1 [(R)-2-(4-(5-tert-butyl-1-methyl-1H-pyrazol-3-ylamino)-1H-pyrazolo[3,4-d]pyrimidin-6-ylamino)-2-phenylethyl ((S)-3-methyl-2-oxoimidazolidin-4-yl)methylcarbamate (24)]
3	2	Cn1nc(Nc2nc(N[C@@H](COC(=O)NCCO)c3ccccc3)nc3n[nH]cc23)cc1C(C)(C)C [(R)-2-(4-(5-tert-butyl-1-methyl-1H-pyrazol-3-ylamino)-1H-pyrazolo[3,4-d]pyrimidin-6-ylamino)-2-phenylethyl 2-hydroxyethylcarbamate (21)]
15	1.2	COc1cc([C@H](CO)Nc2nc(Nc3cc(C(C)(C)C)n(C)n3)c3c[nH]nc3n2)ccn1 [(R)-2-(4-(5-tert-butyl-1-methyl-1H-pyrazol-3-ylamino)-1H-pyrazolo[3,4-d]pyrimidin-6-ylamino)-2-(2-methoxypyridin-4-yl)ethanol (18)]
57	8	Cn1nc(Nc2nc(N[C@@H](CO)c3ccncc3Cl)nc3n[nH]cc23)cc1C(C)(C)C [(R)-2-((4-((5-(tert-butyl)-1-methyl-1H-pyrazol-3-yl)amino)-1H-pyrazolo[3,4-d]pyrimidin-6-yl)amino)-2-(3-chloropyridin-4-yl)ethanol (19)]
–	1000	OCC1CCCCN1c1nc(Nc2cc(C3CC3)[nH]n2)c2cn[nH]c2n1 (stereo unspecified) [(1-(4-(3-cyclopropyl-1H-pyrazol-5-ylamino)-1H-pyrazolo[3,4-d]pyrimidin-6-yl)piperidin-2-yl)methanol (1)]
188	13	CC(C)[C@H](CO)Nc1nc(Nc2cc(C(C)(C)C)n(C)n2)c2c[nH]nc2n1 [(R)-2-(4-(5-tert-butyl-1-methyl-1H-pyrazol-3-ylamino)-1H-pyrazolo[3,4-d]pyrimidin-6-ylamino)-3-methylbutan-1-ol (9)]
5	0.6	Cn1nc(Nc2nc(N[C@@H](COC(=O)N3CCOC(CN)C3)c3ccccc3)nc3n[nH]cc23)cc1C(C)(C)C (stereo partly drawn) [(R)-((R)-2-(4-(5-tert-butyl-1-methyl-1H-pyrazol-3-ylamino)-1H-pyrazolo[3,4-d]pyrimidin-6-ylamino)-2-phenylethyl) 2-(aminomethyl)morpholine-4-carboxylate (26)]
40	8	Cn1nc(Nc2nc(N[C@@H](CO)c3ccccn3)nc3n[nH]cc23)cc1C(C)(C)C [(R)-2-((4-((5-(tert-butyl)-1-methyl-1H-pyrazol-3-yl)amino)-1H-pyrazolo[3,4-d]pyrimidin-6-yl)amino)-2-(pyridin-2-yl)ethanol (14)]
101	11	Cn1nc(Nc2nc(NC(CO)C3CCOCC3)nc3n[nH]cc23)cc1C(C)(C)C (stereo unspecified) [2-(4-(5-tert-butyl-1-methyl-1H-pyrazol-3-ylamino)-1H-pyrazolo[3,4-d]pyrimidin-6-ylamino)-2-(tetrahydro-2H-pyran-4-yl)ethanol (8)]
< 5	1	Cn1nc(Nc2nc(N[C@@H](CO)c3ccccc3)nc3n[nH]cc23)cc1C(C)(C)C [(R)-2-(4-(5-tert-butyl-1-methyl-1H-pyrazol-3-ylamino)-1H-pyrazolo[3,4-d]pyrimidin-6-ylamino)-2-phenylethanol (10)]
–	50	OC[C@@H](Nc1nc(Nc2cc(C3CC3)n[nH]2)c2c[nH]nc2n1)C1CCCCC1 [(S)-2-cyclohexyl-2-(4-(3-cyclopropyl-1H-pyrazol-5-ylamino)-1H-pyrazolo[3,4-d]pyrimidin-6-ylamino)ethanol (2)]
–	10	CC(C)c1cc(Nc2nc(N[C@H](CO)C3CCCCC3)nc3n[nH]cc23)[nH]n1 [(S)-2-cyclohexyl-2-(4-(5-isopropyl-1H-pyrazol-3-ylamino)-1H-pyrazolo[3,4-d]pyrimidin-6-ylamino)ethanol (3)]
